Assay results published in US20230346827A1 (priority 2020, published 2023).

Experiments:
[1] = system: plasma hepatocyte growth factor (HGF); assay: Plasma HGF (ELISA) in ALS patients after s.c. LMW-DS 1 mg/kg weekly (Example 2); format: in vivo, human; settings: 1 mg/kg s.c.
Method: This was a single-center, open single-arm study where the safety, tolerability and efficacy of subcutaneous (s.c.) administered LMW-DS was evaluated in patients with ALS. There were 10 planned visits to the clinic: 1 screening visit divided in 2 parts (Visit 1a and Visit 1b), 5 investigational medicinal product (IMP) administration visits (Visit 2 to Visit 6) and 3 follow-up visits (Visit 7 to Visit 9). Each individual patient’s study participation was planned to be approximately 4 months, including the screening and follow-up visits.
The active pharmaceutical ingredient of the IMP was a low molecular weight dextran sulfate (LMW-DS), (ILB®, Tikomed AB, Viken, Sweden, WO 2016/076780). The drug was used as a solution for s.c. injection and consisted of 20 mg/mL LMW-DS and 9 mg/mL NaCl. Each glass vial contained 10 mL. The dose administered depended on the patient’s body weight at Visit 2, prior to the first LMW-DS administration. LMW-DS was injected s.c. on alternating sides of the abdomen, thigh or the buttock (in that order of priority). Five injections of 1 mg/kg, with 1 week dosing interval, were administered. Changes in immunoreactive HGF were measured by commercial ELISA (R&D HGF ELISA) from blood samples taken at each visit.

[2] = system: HDFn + (IL-1β, TNFα, IFNy, EGF, bFGF and PDGF-BB); assay: BioMAP HDF3CGF system; format: cell-based, human; settings: annotated relative to vehicle controls
Text: (§1) Cell types and stimuli used in each system are as follows: 3C system [HUVEC + (IL-1β, TNFα and IFNy)], 4H system [HUVEC + (IL-4 and histamine)], LPS system [PBMC and HUVEC + LPS (TLR4 ligand)], SAg system [PBMC and HUVEC + TCR ligands], BT system [CD19+ B cells and PBMC + (α-IgM and TCR ligands)], BF4T system [bronchial epithelial cells and HDFn + (TNFα and IL-4)], BE3C system [bronchial epithelial cells + (IL-1β, TNFα and IFNy)], CASM3C system [coronary artery smooth muscle cells + (IL-1 β, TNFα and IFNy)], HDF3CGF system [HDFn + (IL-1β, TNFα, IFNy, EGF, bFGF and PDGF-BB)], KF3CT system [keratinocytes and HDFn + (IL-1β, TNFα, IFNy and TGFβ)], MyoF system [differentiated lung myofibroblasts + (TNFα and TGFβ)] and Mphg system [HUVEC and M1 macrophages + Zymosan (TLR2 ligand)].
(§2) Systems are derived from either single cell types or co-culture systems. Adherent cell types are cultured in 96 or 384-well plates until confluence, followed by the addition of PBMC (SAg and LPS systems). […] Soluble factors from supernatants are quantified using either HTRF® detection, bead-based multiplex immunoassay or capture ELISA. Overt adverse effects of test agents on cell proliferation and viability (cytotoxicity) are detected by sulforhodamine B (SRB) staining, for adherent cells, and alamarBlue® reduction for cells in suspension. […]

human PBMC = assay: Stimulated cytokine release from human PBMC (5-plex Luminex: IFNγ, IL-8, TNFα, IL-1β, IL-10); format: cell-based
Method: Example 9 investigated the ability of LMW-DS to modify the secretion of IL-6 from human PBMC arising from the use of various stimuli. The present study performed a broader analysis of the cell culture supernatants arising from Example 9. Thus, peripheral blood mononuclear cells (PBMC) were isolated from healthy donors through Ficoll-Paque PLUS density centrifugation. The PBMC were cultured at 2×10^5 cells/well in the absence (unstimulated PBS vehicle controls) or presence of stimulation (LPS, peptidoglycan, pokeweed mitogen, PHA-L, CpG + IL-15, or Cytostim) in the absence (vehicle) or presence of LMW-DS (Tikomed AB, Viken, Sweden, WO 2016/076780; three concentrations; top concentration 600 µg/ml, 200 µg/ml and 60 µg/ml) for 24 hours at 37° C., 5% CO2.
Accordingly, the treatments were as follows for each PBMC donor: • i. Vehicle • ii. Simulation • iii. Stimulation + LMW-DS (60 µg/ml) • iv. Stimulation + LMW-DS (200 µg/ml) • v. Stimulation + LMW-DS (600 µg/ml) with each assessed in triplicate such that the total numbers of samples were: • 1. LPS; 165 samples (from 11 donors) • 2. Peptidoglycan from B. subtilis; 90 samples (from 6 donors) • 3. PHA-L; 90 samples (from 6 donors) • 4. 0.2 µM CpG + IL-15; 90 samples (from 6 donors) • 5. 1.0 µM CpG + IL-15; 90 samples (from 6 donors) • 6. Pokeweed mitogen; 90 samples (from 6 donors) • 7. 10 µl/ml Cytostim; 90 samples (from 6 donors) • 8. 30 µl/ml Cytostim; 90 samples (from 6 donors)
Following treatment, cell culture supernatants were removed, centrifuged and stored at -20° C. before thawing for multiplex analysis of various cytokines using the 5-plex human magnetic Luminex assay from R&D systems (Cat. No. LXSAHM-05). Luminex analysis was carried out exactly following manufacturer’s protocols.

[3] = system: coronary artery smooth muscle cells + (IL-1 β, TNFα and IFNy); assay: BioMAP CASM3C system; format: cell-based, human; settings: annotated relative to vehicle controls
Text: as §1, §2

[4] = system: keratinocytes and HDFn + (IL-1β, TNFα, IFNy and TGFβ); assay: BioMAP KF3CT system; format: cell-based, human; settings: annotated relative to vehicle controls
Text: as §1, §2

[5] = LPS, highest concentration of LMW-DS

In the case of sodium salt of dextran sulfate [LMW-DS], the “time of maximum peak of plasma HGF after LMW-DS administration” value [1] is reported as “about 2 hr”, the Decreased biomarker activity [2] is reported as “VCAM-1, IP-10, ITAC, MIG, M-CSF” and the Increased biomarker activity [2] is reported as “EGFR, MMP-1, PAI-1”. For the same substance, the IL-8 secretion response (human PBMC; CpG + IL-15) was “little impact”, the IL-10 secretion (human PBMC; Cytostim) was “concentration dependent large reduction” and the “secretion of IFNγ, IL-1β, IL-8, TNFα” value (human PBMC; Cytostim) was “small reductions”. For the same substance, the IFNγ secretion (human PBMC; LPS, LMW-DS 60-600 µg/ml) was “concentration dependent but small reduction”, the IL-10 secretion (human PBMC; LPS, LMW-DS 60-600 µg/ml) was “concentration dependent but small reduction” and the IL-1β secretion (human PBMC; [5]) was “modest reduction”. The IL-8 secretion (human PBMC; [5]) was “modest reduction”, the TNFα secretion (human PBMC; [5]) was “modest reduction” and the IFNγ release (human PBMC; PHA-L) was “small decreases”. For the same substance, the IL-8 release (human PBMC; PHA-L) was “small decreases”, the IL-10 secretion (human PBMC; PHA-L) was “large, concentration dependent decrease” and the TNFα release (human PBMC; PHA-L) was “small decreases”. The IL-1β secretion (human PBMC; peptidoglycan) was “increases”, the TNFα secretion (human PBMC; peptidoglycan) was “increases” and the “general reduction in cytokine release” value (human PBMC; peptidoglycan, LMW-DS up to 600 µg/ml) was “little evidence”. For the same substance, the IL-10 secretion (human PBMC; pokeweed mitogen) was “concentration-dependent decrease”, the “secretion of IFNγ, IL-1β, IL-8, TNFα” value (human PBMC; pokeweed mitogen) was “not impacted generally” and the Decreased biomarker activity [3] was “VCAM-1, MIG”. For the same substance, the Decreased biomarker activity [4] was “MCP-1” and the Increased biomarker activity [4] was “IL-8”.
